Bridge positions count the residues as written; N and C are the ends. Peptide text beside a SMILES is read from it.
Columns and labels:
[1] = test system: Kv1.3 T345A mutant; experiment: Whole-cell patch clamp, Kv1.3 alanine mutant; format: cell-based, human; details: 100 nM MrVIII, +30 mV; n = 4–7
Procedure: (§1) MrVIII inhibits Kv1 channels by stabilizing the voltage sensor in its resting state. […] To investigate this hypothesis, we constructed a series of alanine mutants in the S3-S4 region of the Kv1.3 channel, covering residues I336 to L363, to identify critical interactions between the peptide and the channel (Fig. 6A). […] For the remaining mutants that retained functional current expression, we evaluated the inhibitory activity of 100 nM MrVIII. […] The lack of conserved multiple interaction sites may explain the absence of activity on other Kv subfamily channels (Fig. S3). In summary, this study identified key amino acid residues in the S3-S4 region of the Kv1.3 channel that interact with MrVIII, providing a foundation for further exploration into the peptide's mechanism of action.
(§2) The cDNA of hKv1.1, hKv1.2, hKv1.3, rKv1.4, hKv1.5, mKv1.6, and hKv1.7 were subcloned into mammalian expression vectors pcDNA3.1 or pCMV-blank vectors, as well as other plasmids described previously ([35]). Channel mutants were generated by site-directed mutations. Briefly, the parental channel plasmid was amplified using a pair of oppositely directed primers harboring the designed mutation site, with KOD Fx (TOYOBO Co, Ltd). The resulting PCR mix was treated with FastDigest DpnI (Thermo Fisher Scientific) to remove the methylated template. Ten microliters of the digested product was then used to transform 100 μl E. coli DH5α competent cells. Transformants were randomly picked and sequenced to confirm the presence of the intended mutation.
(§3) CHO-K1 cells were selected for expressing Kv channels due to their lack of endogenous Kv channels, while HEK293 or ND7/23 cells were used for Nav and Cav channel expression. CHO-K1 cells were cultured in a Dulbecco's modified Eagle's medium/Ham's F-12 nutrient mixture (DMEM-F12) medium, and HEK293T and ND7/23 cells in DMEM medium, all supplemented with 10% fetal bovine serum and 1% penicillin-streptomycin (all from Gibco, Thermo Fisher Scientific, Inc) under standard conditions (37 °C, 5% CO2, and saturated humidity). These cell lines were purchased from Stem Cell Bank, Chinese Academy of Sciences. Channel plasmids were cotransfected with pEGFP-N1 (encoding GFP) into the respective cells using lipofectamine 2000, following the manufacturer's instructions (Invitrogen, Thermo Fisher Scientific, Inc.). Nav1.9-GFP plasmid was transfected into ND7/23 using the X-tremeGENE HP DNA Transfection Reagent (Roche). After 4 to 6 h transfection, cells were seeded onto poly-lysine–coated coverslips, and 24 to 36 h later, transfected cells were ready for patch-clamp analysis.
(§4) Patch clamp experiments were conducted using an electrophysiology platform comprising a MultiClamp 700B amplifier and an Axon Digidata 1550 AD/DA convertor (Axon Instruments). Data acquisition was performed with pClamp 10.5 software (Axon Instruments). All experiments were performed at room temperature.
(§5) For Kv current recordings, the bath solution contained (in mM) the following: 140 NaCl, 5 KCl, 1 MgCl2, 2 CaCl2, 10 glucose, and 10 Hepes (pH 7.3, adjusted with NaOH), and the pipette solution contained (in mM) the following: 140 KCl, 2.5 MgCl2, 11 EGTA, and 10 Hepes (pH 7.3, adjusted with KOH). Series resistance was maintained below 10 MΩ and compensated to 80%. Concentration–response curves were fitted by the Hill equation to determine the toxin's potency. Whole cell conductance (G) at each depolarizing voltage (V) was determined using the equation: G = I/(V−Vrev), where I is the current amplitude, and Vrev is the reversal potential. The reversal potential for K^+ current was estimated to be −85.6 mV using the Nernst equation. G-V curves were obtained by plotting the normalized conductance as a function of V and fitted by the Boltzmann equation: y = 1/(1+ exp((Va-V)/k)), which Va is the midpoint voltage, V is the test potential, and k is the slope factor. The steady-state fast inactivation of Kv1.3 was measured using a two-pulses protocol. […]

[2] = test system: Kv1.3 E349A mutant; experiment: Whole-cell patch clamp, Kv1.3 alanine mutant; format: cell-based, human; details: 100 nM MrVIII, +30 mV; n = 4–7
Procedure: as §1, §2, §3, §4, §5

[3] = test system: Kv1.3 S359A mutant; experiment: Whole-cell patch clamp, Kv1.3 alanine mutant; format: cell-based, human; details: 100 nM MrVIII, +30 mV; n = 4–7
Procedure: as §1, §2, §3, §4, §5

[4] = test system: Kv1.3 Q355A mutant; experiment: Whole-cell patch clamp, Kv1.3 alanine mutant; format: cell-based, human; details: 100 nM MrVIII, +30 mV; n = 4–7
Procedure: as §1, §2, §3, §4, §5

[5] = test system: Kv1.3/Y339A; experiment: Whole-cell patch clamp, Kv1.3 alanine mutant; format: cell-based, human
Procedure: as §1, §2, §3, §4, §5

[6] = test system: Kv1.3 G344A mutant; experiment: Whole-cell patch clamp, Kv1.3 alanine mutant; format: cell-based, human; details: 100 nM MrVIII, +30 mV; n = 4–7
Procedure: as §1, §2, §3, §4, §5

[7] = target: T1, Kv1.2/Y266A (Homo sapiens, UniProt P16389, Y266A); experiment: Whole-cell patch clamp, Tyr-to-Ala mutant homologous to Kv1.3 Y339; format: cell-based; details: +30 mV, mean ± SD, n = 4–6
T1 construct: expressed in transfected cells; host or cells: CHO-K1
Description: Building on the identification of key amino acid residues in Kv1.3 channel that interact with MrVIII through alanine-scanning mutagenesis, we extended our analysis to explore these residues across other Kv1 subfamily channels. […] However, MrVIII retained substantial inhibitory potency on Kv1.2/Y266A mutant, albeit without fully blocking the channel current. […] The profound reduction in MrVIII's effect across homologous mutants supports the idea that it binds to a conserved region.
The cDNA of hKv1.1, hKv1.2, hKv1.3, rKv1.4, hKv1.5, mKv1.6, and hKv1.7 were subcloned into mammalian expression vectors pcDNA3.1 or pCMV-blank vectors, as well as other plasmids described previously ([35]). Channel mutants were generated by site-directed mutations. Briefly, the parental channel plasmid was amplified using a pair of oppositely directed primers harboring the designed mutation site, with KOD Fx (TOYOBO Co, Ltd). The resulting PCR mix was treated with FastDigest DpnI (Thermo Fisher Scientific) to remove the methylated template. […]
CHO-K1 cells were selected for expressing Kv channels due to their lack of endogenous Kv channels, while HEK293 or ND7/23 cells were used for Nav and Cav channel expression. […] After 4 to 6 h transfection, cells were seeded onto poly-lysine–coated coverslips, and 24 to 36 h later, transfected cells were ready for patch-clamp analysis. […]

T1 sequence (P16389 whole entry Y266A): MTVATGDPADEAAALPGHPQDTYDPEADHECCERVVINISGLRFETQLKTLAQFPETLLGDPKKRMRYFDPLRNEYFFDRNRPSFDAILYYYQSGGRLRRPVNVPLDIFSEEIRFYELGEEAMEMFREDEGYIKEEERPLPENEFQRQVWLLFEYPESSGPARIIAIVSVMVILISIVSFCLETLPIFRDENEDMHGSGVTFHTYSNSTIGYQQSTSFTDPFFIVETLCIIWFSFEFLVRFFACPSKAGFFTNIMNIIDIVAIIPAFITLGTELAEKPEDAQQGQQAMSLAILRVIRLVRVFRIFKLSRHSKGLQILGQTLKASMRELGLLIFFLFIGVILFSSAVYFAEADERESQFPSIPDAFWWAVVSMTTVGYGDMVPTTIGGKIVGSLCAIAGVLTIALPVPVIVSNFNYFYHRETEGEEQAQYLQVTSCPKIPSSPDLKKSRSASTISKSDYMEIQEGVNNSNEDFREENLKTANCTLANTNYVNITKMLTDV

## CC[C@H](C)[C@@H]1NC(=O)[C@H](Cc2ccc(O)cc2)NC(=O)[C@H](CCC(N)=O)NC(=O)[C@@H]2CCCN2C(=O)[C@@H]2CSSC[C@H](NC(=O)[C@H](C)NC(=O)[C@H](CO)NC(=O)[C@H](CCC(=O)O)NC(=O)[C@H](CCC(=O)O)NC(=O)[C@@H](N)[C@@H](C)O)C(=O)NCC(=O)NCC(=O)N[C@@H](Cc3ccccc3)C(=O)N[C@@H](CC(N)=O)C(=O)N[C@@H](C)C(=O)N[C@@H](CCCNC(=N)N)C(=O)N[C@H]3CSSC[C@H](NC1=O)C(=O)N[C@@H](CCCCN)C(=O)NCC(=O)N[C@@H](Cc1c[nH]c4ccccc14)C(=O)N[C@@H](CCCNC(=N)N)C(=O)N[C@@H]([C@@H](C)O)C(=O)N[C@@H](CCCCN)C(=O)N[C@@H](CCCNC(=N)N)C(=O)N[C@H](C(=O)N[C@@H](CC(C)C)C(=O)N[C@@H](CC(N)=O)C(=O)N1CCC[C@H]1C(=O)O)CSSC[C@H](NC(=O)[C@H](CCCCN)NC(=O)[C@H](Cc1c[nH]cn1)NC(=O)[C@H](CC(C)C)NC(=O)[C@@H]1CCCN1C3=O)C(=O)N2 [MrVIII] (H-TEESACGGFNARCPLHKCCPQYICKGWRTKRCLNP-OH; disulfide 6-19, 13-24, 18-32; N-terminus and C-terminus assumed)
[1]
  reduction in inhibitory potency vs WT Kv1.3, T345A: more than 5 fold
[2]
  reduction in inhibitory potency vs WT Kv1.3, E349A: more than 5 fold
[3]
  reduction in inhibitory potency vs WT Kv1.3, S359A: more than 5 fold
[4]
  reduction in inhibitory potency vs WT Kv1.3, Q355A: more than 5 fold
[5]; 100 nM MrVIII on mutant compared with 10 nM on WT Kv1.3, +30 mV, n = 4–7
  decrease of inhibitory potency vs WT Kv1.3, Y339A: more than 10 fold
[5]; 10 μM MrVIII, +30 mV, mean ± SD, n = 4–6, SD
  inhibition of peak current of Kv1.3/Y339A: 24.9 ± 6.0%
[6]
  reduction in inhibitory potency vs WT Kv1.3, G344A: more than 5 fold
[7]; current at 50 ms
  IC50: 0.418 ± 0.0412 µM
[7]; current at 495 ms
  inhi%(495 ms), Kv1.2/Y266A current: 36.9 ± 14.1%

Reference: paper PMC11984586, “A novel spider toxin as a selective antagonist of the Kv1 subfamily of voltage-gated potassium channels through gating modulation” (The Journal of Biological Chemistry, 2025)
